ChEMBL document CHEMBL1142678, “Discovery and structure-activity relationship of quinuclidine benzamides as agonists of alpha7 nicotinic acetylcholine receptors” (J Med Chem, 2005)
pEC50, pIC50, pKi: −log10 of the molar value.

Biological target: T1, Serotonin 3 (5-HT3) receptor (Rattus norvegicus, UniProt P35563+Q9JJ16)
T1 sequence (P35563 whole entry): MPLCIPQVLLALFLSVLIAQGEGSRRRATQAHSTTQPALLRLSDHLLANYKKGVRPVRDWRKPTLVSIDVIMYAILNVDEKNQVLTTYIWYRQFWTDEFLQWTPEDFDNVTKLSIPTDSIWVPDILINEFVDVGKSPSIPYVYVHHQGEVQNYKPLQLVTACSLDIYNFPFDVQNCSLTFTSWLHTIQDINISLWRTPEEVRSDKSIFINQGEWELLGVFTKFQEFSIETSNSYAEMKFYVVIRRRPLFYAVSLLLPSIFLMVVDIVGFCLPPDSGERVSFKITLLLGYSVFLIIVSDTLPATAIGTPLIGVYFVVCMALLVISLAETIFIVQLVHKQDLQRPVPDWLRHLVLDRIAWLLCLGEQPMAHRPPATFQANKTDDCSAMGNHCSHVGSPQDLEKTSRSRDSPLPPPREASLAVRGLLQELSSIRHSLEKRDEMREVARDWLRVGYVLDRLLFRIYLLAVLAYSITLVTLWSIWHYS
T1 sequence (Q9JJ16 whole entry): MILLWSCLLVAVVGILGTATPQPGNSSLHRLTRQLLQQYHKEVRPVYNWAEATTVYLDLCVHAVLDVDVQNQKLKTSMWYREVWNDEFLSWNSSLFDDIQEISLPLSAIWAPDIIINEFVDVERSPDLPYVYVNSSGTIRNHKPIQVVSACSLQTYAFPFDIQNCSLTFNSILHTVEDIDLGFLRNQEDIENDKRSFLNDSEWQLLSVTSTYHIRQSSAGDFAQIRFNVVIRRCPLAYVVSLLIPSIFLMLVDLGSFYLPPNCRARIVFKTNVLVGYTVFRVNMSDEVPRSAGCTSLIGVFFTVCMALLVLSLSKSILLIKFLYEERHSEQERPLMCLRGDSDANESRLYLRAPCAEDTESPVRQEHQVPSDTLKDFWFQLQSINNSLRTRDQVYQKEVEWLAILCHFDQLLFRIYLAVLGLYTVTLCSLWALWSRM
Test: Inhibition of [3H]GR-65630 binding to 5-hydroxytryptamine 3 receptor from rat brain homogenates

O=C(N[C@H]1CN2CCC1CC2)c1ccc(Cl)cc1 [listing 1 of 2 here] gave a pKi of 5.78.

Biological target: Neuronal acetylcholine receptor; alpha3/beta4 (Homo sapiens, UniProt P30926+P32297)
Sequence (P30926 whole entry): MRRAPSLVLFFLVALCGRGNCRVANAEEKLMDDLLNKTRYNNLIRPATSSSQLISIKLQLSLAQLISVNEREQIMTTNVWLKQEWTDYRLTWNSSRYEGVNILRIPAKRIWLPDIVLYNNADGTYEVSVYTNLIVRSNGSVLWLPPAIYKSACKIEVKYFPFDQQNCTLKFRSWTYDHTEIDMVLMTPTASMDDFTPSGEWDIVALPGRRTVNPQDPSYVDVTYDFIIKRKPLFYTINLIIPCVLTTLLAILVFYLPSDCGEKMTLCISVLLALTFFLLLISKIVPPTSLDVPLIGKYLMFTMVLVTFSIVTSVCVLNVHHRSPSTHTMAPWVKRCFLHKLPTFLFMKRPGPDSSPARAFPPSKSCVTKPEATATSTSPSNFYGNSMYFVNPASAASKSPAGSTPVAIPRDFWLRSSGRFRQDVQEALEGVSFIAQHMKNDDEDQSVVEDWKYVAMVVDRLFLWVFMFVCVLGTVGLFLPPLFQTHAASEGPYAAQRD
Sequence (P32297 whole entry): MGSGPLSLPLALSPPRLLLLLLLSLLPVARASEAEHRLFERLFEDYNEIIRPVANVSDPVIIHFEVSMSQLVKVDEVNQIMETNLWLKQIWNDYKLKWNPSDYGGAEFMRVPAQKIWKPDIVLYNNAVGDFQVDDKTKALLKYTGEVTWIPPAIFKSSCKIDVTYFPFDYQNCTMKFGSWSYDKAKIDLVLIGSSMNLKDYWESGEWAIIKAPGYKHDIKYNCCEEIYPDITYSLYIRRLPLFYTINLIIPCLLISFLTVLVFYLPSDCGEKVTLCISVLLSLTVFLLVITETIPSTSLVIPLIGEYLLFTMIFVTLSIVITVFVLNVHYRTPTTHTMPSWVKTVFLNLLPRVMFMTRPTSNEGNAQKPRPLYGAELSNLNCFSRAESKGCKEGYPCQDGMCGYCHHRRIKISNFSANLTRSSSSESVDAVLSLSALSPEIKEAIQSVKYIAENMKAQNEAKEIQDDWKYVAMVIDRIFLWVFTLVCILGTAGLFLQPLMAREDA
Test: Antagonistic activity against Nicotinic acetylcholine receptor alpha3-beta4
Format: functional

O=C(N[C@H]1CN2CCC1CC2)c1ccc(Cl)cc1 [listing 1 of 2 here] showed a pIC50 of no more than 4.22.

Biological target: T1, Serotonin 3 (5-HT3) receptor
Test: Functional antagonism of rat 5-hydroxytryptamine 3 receptor in cell-based FLIPR assay

Compound O=C(N[C@H]1CN2CCC1CC2)c1ccc(Cl)cc1 [listing 1 of 2 here] has a pIC50 of 5.34.

Biological target: Neuronal acetylcholine receptor; alpha4/beta2 (Rattus norvegicus) (UniProt P09483+P12390)
Test: Inhibition of [3H]cytisine binding to Nicotinic acetylcholine receptor alpha4-beta2 from rat brain homogenates at 1 uM

For O=C(N[C@H]1CN2CCC1CC2)c1ccc(Cl)cc1 [listing 2 of 2 here], the inhibition was 14%.

Biological target: not listed separately
Test: Antagonistic activity against 5-hydroxytryptamine 3 receptor
Format: functional

Compound O=C(N[C@H]1CN2CCC1CC2)c1cc(Cl)cc2c1OCC2 has a pKi of 9.00.

Biological target: Acetylcholine receptor; alpha1/beta1/delta/gamma (Homo sapiens, UniProt P02708+P07510+P11230+Q07001)
Sequence (P02708 whole entry): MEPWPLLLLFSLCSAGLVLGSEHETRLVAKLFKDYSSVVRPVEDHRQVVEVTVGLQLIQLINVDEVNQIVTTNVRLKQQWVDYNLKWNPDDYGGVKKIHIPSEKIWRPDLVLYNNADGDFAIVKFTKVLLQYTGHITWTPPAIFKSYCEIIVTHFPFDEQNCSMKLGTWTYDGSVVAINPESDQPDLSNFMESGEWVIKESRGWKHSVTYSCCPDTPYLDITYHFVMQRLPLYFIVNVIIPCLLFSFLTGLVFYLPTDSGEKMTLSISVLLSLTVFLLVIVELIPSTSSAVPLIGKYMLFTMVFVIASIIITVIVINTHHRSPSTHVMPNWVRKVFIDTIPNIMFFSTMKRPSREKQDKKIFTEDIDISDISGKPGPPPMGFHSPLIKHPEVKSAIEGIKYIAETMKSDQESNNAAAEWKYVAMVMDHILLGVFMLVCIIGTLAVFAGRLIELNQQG
Sequence (P07510 whole entry): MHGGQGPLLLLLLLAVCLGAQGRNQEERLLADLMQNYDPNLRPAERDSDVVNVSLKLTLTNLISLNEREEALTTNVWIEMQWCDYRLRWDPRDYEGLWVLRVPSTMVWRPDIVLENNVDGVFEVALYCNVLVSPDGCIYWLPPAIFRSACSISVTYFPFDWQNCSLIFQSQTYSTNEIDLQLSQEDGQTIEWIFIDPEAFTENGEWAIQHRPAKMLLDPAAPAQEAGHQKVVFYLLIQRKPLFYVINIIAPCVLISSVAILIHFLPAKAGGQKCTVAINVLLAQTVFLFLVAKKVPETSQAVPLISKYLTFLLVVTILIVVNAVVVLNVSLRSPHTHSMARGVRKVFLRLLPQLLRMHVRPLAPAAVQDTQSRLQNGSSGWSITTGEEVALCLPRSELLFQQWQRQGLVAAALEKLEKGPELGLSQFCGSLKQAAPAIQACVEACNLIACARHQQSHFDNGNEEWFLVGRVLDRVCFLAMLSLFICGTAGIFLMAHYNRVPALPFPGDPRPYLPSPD
Sequence (P11230 whole entry): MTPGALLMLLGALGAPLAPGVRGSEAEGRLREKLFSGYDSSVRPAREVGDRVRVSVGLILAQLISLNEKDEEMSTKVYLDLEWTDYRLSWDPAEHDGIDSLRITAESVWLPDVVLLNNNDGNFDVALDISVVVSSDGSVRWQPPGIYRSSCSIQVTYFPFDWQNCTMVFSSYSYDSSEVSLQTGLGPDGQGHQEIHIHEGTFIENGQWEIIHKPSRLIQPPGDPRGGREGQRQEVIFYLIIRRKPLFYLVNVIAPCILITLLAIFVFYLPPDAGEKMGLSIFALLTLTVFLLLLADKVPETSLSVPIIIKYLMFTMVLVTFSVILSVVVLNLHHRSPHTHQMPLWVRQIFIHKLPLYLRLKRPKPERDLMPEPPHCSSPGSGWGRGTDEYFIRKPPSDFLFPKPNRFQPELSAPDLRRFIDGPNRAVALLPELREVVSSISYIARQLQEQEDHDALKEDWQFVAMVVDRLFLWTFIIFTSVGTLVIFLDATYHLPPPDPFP
Sequence (Q07001 whole entry): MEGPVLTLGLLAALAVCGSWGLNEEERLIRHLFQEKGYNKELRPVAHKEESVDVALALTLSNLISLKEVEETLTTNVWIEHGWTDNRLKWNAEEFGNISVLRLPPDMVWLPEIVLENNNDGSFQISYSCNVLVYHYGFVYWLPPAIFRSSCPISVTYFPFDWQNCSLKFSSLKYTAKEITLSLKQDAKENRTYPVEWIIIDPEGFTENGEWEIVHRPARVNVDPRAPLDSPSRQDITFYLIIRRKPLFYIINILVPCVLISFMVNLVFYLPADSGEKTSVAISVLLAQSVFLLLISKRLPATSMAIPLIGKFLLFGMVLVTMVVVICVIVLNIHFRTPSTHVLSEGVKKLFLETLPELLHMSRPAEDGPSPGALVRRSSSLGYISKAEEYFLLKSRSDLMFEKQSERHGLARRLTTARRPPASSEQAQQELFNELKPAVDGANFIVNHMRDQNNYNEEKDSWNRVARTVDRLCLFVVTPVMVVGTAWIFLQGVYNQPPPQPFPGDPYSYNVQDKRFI
Test: Antagonistic activity against Nicotinic acetylcholine receptor alpha-1-beta-1-delta-gamma
Format: functional

Compound O=C(N[C@H]1CN2CCC1CC2)c1ccc(Cl)cc1 [listing 1 of 2 here] has a pIC50 of no more than 4.22.

Biological target: not listed separately
Test: Agonistic activity against Nicotinic acetylcholine receptor alpha-7 - 5-hydroxytryptamine 3 receptor chimera
Format: functional

Compared with COc1ccccc1C(=O)N[C@H]1CN2CCC1CC2, O=C(N[C@H]1CN2CCC1CC2)c1ccccc1F is higher in pEC50: less than 4.00 for the first, 4.78 for the second. The second is the more potent here.

Compared with O=C(N[C@H]1CN2CCC1CC2)c1ccc(Br)cc1, Cc1ccc(C(=O)N[C@H]2CN3CCC2CC3)cc1 is 0.20 log units lower in pEC50: 6.69 for the first, 6.49 for the second.

First: O=C(N[C@H]1CN2CCC1CC2)c1cccc(F)c1
Second: O=C(N[C@H]1CN2CCC1CC2)c1cccc(Cl)c1
The pEC50 of the first is 0.34 log units lower: 5.48 for the first, 5.82 for the second.

First: O=C(N[C@H]1CN2CCC1CC2)c1ccc(C(F)(F)F)cc1
Second: O=C(N[C@H]1CN2CCC1CC2)c1ccc(F)cc1
The pEC50 of the first is lower: less than 4.00 for the first, 6.30 for the second. The second is the more potent here.

Compared with O=C(N[C@H]1CN2CCC1CC2)c1ccccc1, O=C(N[C@H]1CN2CCC1CC2)c1ccc(Cl)cc1 [listing 1 of 2 here] is 1.09 log units higher in pEC50: 5.72 for the first, 6.81 for the second. The second is the more potent here.

Compared with O=C(N[C@H]1CN2CCC1CC2)c1ccc(OCc2ccccc2)cc1, O=C(N[C@H]1CN2CCC1CC2)c1ccc(SCc2ccccc2)cc1 is higher in pEC50: less than 4.00 for the first, 4.00 for the second.

First: O=C(N[C@H]1CN2CCC1CC2)c1ccc([N+](=O)[O-])cc1
Second: O=C(N[C@H]1CN2CCC1CC2)c1ccc(Cl)cc1 [PNU-282987]
The pEC50 of the first is 0.89 log units lower: 6.00 for the first, 6.89 for the second.

First: CCCc1ccc(C(=O)N[C@H]2CN3CCC2CC3)cc1
Second: CCc1ccc(C(=O)N[C@H]2CN3CCC2CC3)cc1
The pEC50 of the first is lower: less than 4.00 for the first, 5.42 for the second.

Compared with CC(=O)Nc1ccc(C(=O)N[C@H]2CN3CCC2CC3)cc1, CC(=O)c1ccc(C(=O)N[C@H]2CN3CCC2CC3)cc1 is higher in pEC50: less than 4.00 for the first, 4.52 for the second.

Going from CN(C)c1ccc(C(=O)N[C@H]2CN3CCC2CC3)cc1 to O=C(N[C@H]1CN2CCC1CC2)c1ccc(I)cc1, the pEC50 rises from 4.52 to 6.31 (1.79 log units). The second is the more potent here.

Compared with COc1ccc(C(=O)N[C@H]2CN3CCC2CC3)cc1, CSc1ccc(C(=O)N[C@H]2CN3CCC2CC3)cc1 is 0.35 log units higher in pEC50: 6.44 for the first, 6.79 for the second. The second is the more potent here.

CS(=O)(=O)c1ccc(C(=O)N[C@H]2CN3CCC2CC3)cc1 and CC(C)c1ccc(C(=O)N[C@H]2CN3CCC2CC3)cc1 cannot be ordered by pEC50: less than 4.00 for the first, less than 4.00 for the second.

COc1cccc(C(=O)N[C@H]2CN3CCC2CC3)c1 gave a pEC50 of 5.66.

Biological target: Neuronal acetylcholine receptor subunit alpha-7 (Rattus norvegicus, UniProt Q05941)
Sequence (Q05941 whole entry): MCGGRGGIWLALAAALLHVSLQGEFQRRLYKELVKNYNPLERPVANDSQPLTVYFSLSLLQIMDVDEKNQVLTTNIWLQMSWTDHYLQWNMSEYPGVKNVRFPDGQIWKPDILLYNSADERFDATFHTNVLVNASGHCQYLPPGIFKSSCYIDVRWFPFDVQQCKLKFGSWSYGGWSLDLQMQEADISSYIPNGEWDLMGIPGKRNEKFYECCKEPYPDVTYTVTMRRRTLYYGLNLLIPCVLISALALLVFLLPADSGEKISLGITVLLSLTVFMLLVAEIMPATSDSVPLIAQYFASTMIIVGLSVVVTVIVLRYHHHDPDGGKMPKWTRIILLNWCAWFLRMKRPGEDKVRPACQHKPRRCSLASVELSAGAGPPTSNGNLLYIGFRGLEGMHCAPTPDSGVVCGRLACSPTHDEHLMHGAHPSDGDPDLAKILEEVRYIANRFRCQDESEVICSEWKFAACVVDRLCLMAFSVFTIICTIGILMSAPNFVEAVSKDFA
Test: Inhibition of methyllycaconitine (MLA) binding to Nicotinic acetylcholine receptor alpha-7 in rat brain homogenates
Format: tissue-based

Work on O=C(N[C@H]1CN2CCC1CC2)c1ccc(Cl)cc1 [listing 1 of 2 here] yielded a pKi of 7.57.
